The record followed here is patent publication US9242970B2 (ACTELION PHARMACEUTICALS LTD., priority 2010, dated 2016).

One test has as its target human orexin-1 receptor (Homo sapiens (Human), UniProt O43613). Kind of test: In vitro assay: intracellular calcium measurements (FLIPR), antagonistic activity. It is filed as cell-based. The settings on record: CHO cells, 3 nM orexin-A, compound incubation time of 10 min; marked values are geometric means of n = 2-6; read-out: IC50 OX1.
Another test concerns the target human orexin-2 receptor (Homo sapiens (Human), UniProt O43614). Described as above. It is filed as cell-based. The settings on record: CHO cells, 3 nM orexin-A, compound incubation time of 10 min; marked values are geometric means of n = 2-6; read-out: IC50 OX2.

Chain of human orexin-2 receptor (O43614 whole entry): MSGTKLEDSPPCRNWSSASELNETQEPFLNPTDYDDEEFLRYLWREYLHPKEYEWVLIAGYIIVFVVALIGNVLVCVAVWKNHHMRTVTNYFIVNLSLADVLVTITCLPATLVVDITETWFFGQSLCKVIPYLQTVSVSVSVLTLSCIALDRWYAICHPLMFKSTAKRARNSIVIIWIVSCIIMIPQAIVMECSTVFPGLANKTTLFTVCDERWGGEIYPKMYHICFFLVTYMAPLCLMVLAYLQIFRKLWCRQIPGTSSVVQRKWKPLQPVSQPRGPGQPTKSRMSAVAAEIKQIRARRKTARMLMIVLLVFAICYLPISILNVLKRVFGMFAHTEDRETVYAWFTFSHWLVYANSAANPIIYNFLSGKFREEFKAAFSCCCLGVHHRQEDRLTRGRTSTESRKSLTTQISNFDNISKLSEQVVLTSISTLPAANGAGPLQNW
Chain of human orexin-1 receptor (O43613 whole entry): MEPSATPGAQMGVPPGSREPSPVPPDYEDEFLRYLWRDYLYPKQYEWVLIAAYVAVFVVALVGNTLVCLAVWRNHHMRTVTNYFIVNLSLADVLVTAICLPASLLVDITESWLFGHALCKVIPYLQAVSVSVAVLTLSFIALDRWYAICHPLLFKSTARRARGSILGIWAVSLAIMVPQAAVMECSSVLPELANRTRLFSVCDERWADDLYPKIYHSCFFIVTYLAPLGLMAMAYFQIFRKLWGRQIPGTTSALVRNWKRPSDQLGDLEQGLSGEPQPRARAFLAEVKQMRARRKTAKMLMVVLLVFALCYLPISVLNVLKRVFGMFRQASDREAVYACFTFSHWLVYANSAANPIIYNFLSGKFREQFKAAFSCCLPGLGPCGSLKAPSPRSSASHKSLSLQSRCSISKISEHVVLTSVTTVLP

The term IC50 denotes the point on the concentration scale where inhibition reaches its midpoint. For `COc1cccc(OC)c1C1CC(C)C(=O)N1Cc1cccc(OC(F)(F)F)c1` (stereo not shown) [Example 200, 5-(2,6-dimethoxyphenyl)-3-methyl-1-(3-(trifluoromethoxy)benzyl)pyrrolidin-2-one], the IC50 on human orexin-1 receptor and on human orexin-2 receptor was 108 nM throughout.

Consider `COc1cccc(OC)c1C1CC(C)C(=O)N1Cc1cccc(OC(F)F)n1` (stereo not shown) [Example 201, 1-((6-(difluoromethoxy)pyridin-2-yl)methyl)-5-(2,6-dimethoxyphenyl)-3-methylpyrrolidin-2-one], for which the IC50 at human orexin-1 receptor is 955 nM; at human orexin-2 receptor, 192 nM.

For the compound `COc1cccc(OC)c1C1CC(C)C(=O)N1Cc1ccnc(OC(F)F)c1` (stereo not shown) [Example 202, 1-((2-(difluoromethoxy)pyridin-4-yl)methyl)-5-(2,6-dimethoxyphenyl)-3-methylpyrrolidin-2-one], the IC50 is 224 nM on human orexin-1 receptor and 923 nM on human orexin-2 receptor.

For `CCC(c1ccc(OC(F)(F)F)cc1)N1C(=O)C(C)CC1c1c(OC)cccc1OC` (stereo not shown) [Example 203, 5-(2,6-dimethoxyphenyl)-3-methyl-1-(1-(4-(trifluoromethoxy)phenyl)propyl)pyrrolidin-2-one], the values for the IC50 at human orexin-1 receptor and at human orexin-2 receptor were 451 nM and 1170 nM, respectively.

With `COc1cccc(OC)c1C1CC(C)C(=O)N1Cc1cc(OC(F)F)ccn1` (stereo not shown) [Example 204, 1-((4-(difluoromethoxy)pyridin-2-yl)methyl)-5-(2,6-dimethoxyphenyl)-3-methylpyrrolidin-2-one], the IC50 is 6380 nM at human orexin-1 receptor and 1260 nM at human orexin-2 receptor.

With `CCOc1ccc(CN2C(=O)CCCC2c2c(OC)cccc2OC)cc1` (stereo not shown) [Example 205, 6-(2,6-dimethoxyphenyl)-1-(4-ethoxybenzyl)piperidin-2-one], the results for the IC50 at human orexin-1 receptor and on human orexin-2 receptor were 202 nM and 65 nM, respectively.

Turning to `COc1cccc(OC)c1C1CCCC(=O)N1Cc1ccc(OC(C)C)cc1` (stereo not shown) [Example 206, 6-(2,6-dimethoxyphenyl)-1-(4-isopropoxybenzyl)piperidin-2-one], the IC50 stood at 383 nM at human orexin-1 receptor and 16 nM on human orexin-2 receptor.

Regarding `CCCOc1ccc(CN2C(=O)CCCC2c2c(OC)cccc2OC)cc1` (stereo not shown) [Example 207, 6-(2,6-dimethoxyphenyl)-1-(4-propoxybenzyl)piperidin-2-one], the half-inhibitory concentration (IC50) on human orexin-1 receptor worked out at 169 nM; on human orexin-2 receptor, 35 nM.

On to `COc1cccc(OC)c1C1CCCC(=O)N1Cc1ccc(OCC2CC2)cc1` (stereo not shown) [Example 208, 1-(4-(cyclopropylmethoxy)benzyl)-6-(2,6-dimethoxyphenyl)piperidin-2-one], for which the IC50 at human orexin-1 receptor stood at 1110 nM; at human orexin-2 receptor, 39 nM.

`COc1cccc(OCCCO)c1C1CCCC(=O)N1Cc1ccc(OC(F)(F)F)cc1` (stereo not shown) [Example 209, 6-(2-(3-hydroxypropoxy)-6-methoxyphenyl)-1-(4-(trifluoromethoxy)benzyl)piperidin-2-one]: the values for the IC50 on human orexin-1 receptor and at human orexin-2 receptor were 1060 nM and 286 nM, respectively.

On to `COc1cccc(OCC2CC2)c1C1CCCC(=O)N1Cc1ccc(OC(F)(F)F)cc1` (stereo not shown) [Example 210, 6-(2-(cyclopropylmethoxy)-6-methoxyphenyl)-1-(4-(trifluoromethoxy)benzyl)piperidin-2-one], for which the half-maximal inhibitory concentration (IC50) on human orexin-1 receptor came out at 2550 nM; on human orexin-2 receptor it was 4140 nM.

For `COCCOc1cccc(OC)c1C1CCCC(=O)N1Cc1ccc(OC(F)(F)F)cc1` (stereo not shown) [Example 211, 6-(2-methoxy-6-(2-methoxyethoxy)phenyl)-1-(4-(trifluoromethoxy)benzyl)piperidin-2-one], the IC50 was 2780 nM on human orexin-1 receptor and 664 nM on human orexin-2 receptor.

For `CCOc1cccc(OC)c1C1CCCC(=O)N1Cc1ccc(OC(F)(F)F)cc1` (stereo not shown) [Example 212, 6-(2-ethoxy-6-methoxyphenyl)-1-(4-(trifluoromethoxy)benzyl)piperidin-2-one], the results for the half-inhibitory concentration (IC50) at human orexin-1 receptor and at human orexin-2 receptor were 216 nM and 37 nM, respectively.

`COc1cccc(OCCO)c1C1CCCC(=O)N1Cc1ccc(OC(F)(F)F)cc1` (stereo not shown) [Example 213, 6-(2-(2-hydroxyethoxy)-6-methoxyphenyl)-1-(4-(trifluoromethoxy)benzyl)piperidin-2-one]: the IC50 came to 1380 nM on human orexin-1 receptor and 85 nM on human orexin-2 receptor.
